“And” between values parts separate entries of the source, which are not always exact repeats. Identical values can stand only once.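 Values below derive from 48-hour exposures of cells grown in 96-well plates, with endpoints linearly interpolated between the two concentrations bracketing the appropriate inhibition level. At the GI50, growth is halved. TGI: total growth inhibition.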
Legend:
Assay in all cases: growth of human tumour cells (NCI), 48 h
OVCAR-4 ovarian = test system: OVCAR-4 ovarian
CAKI-1 renal = test system: CAKI-1 renal
CCRF-CEM leukemia = test system: CCRF-CEM leukemia
OVCAR-3 ovarian = test system: OVCAR-3 ovarian
NCI-H522 lung = test system: NCI-H522 lung
ACHN renal = test system: ACHN renal
MOLT-4 leukemia = test system: MOLT-4 leukemia
SNB-75 CNS = test system: SNB-75 CNS

Row | SMILES | TGI (OVCAR-4 ovarian) [µM] | TGI (CAKI-1 renal) [µM] | TGI (CCRF-CEM leukemia) [µM] | TGI (OVCAR-3 ovarian) [µM] | TGI (NCI-H522 lung) [µM] | TGI (ACHN renal) [µM] | TGI (MOLT-4 leukemia) [µM] | TGI (SNB-75 CNS) [µM] | GI50 (ACHN renal) | GI50 (MOLT-4 leukemia)
1 | CC1(/C=C/CCSc2ccccc2)CC(=O)C2CC1C2(C)C (centres undefined) | > 100 | > 82 | 31 | > 91.3 | 52.3 | 77.8 | > 40.5 | > 100 |  | 
2 | COC(=O)[C@@H]1[C@H](OC(C)=O)CCC2[C@@]3(C[C@@H](c4ccoc4)O[C@@H]3OC)[C@H](C)CC[C@]21C(=O)OC (some centres undefined) | > 25 | > 25 | > 25 | > 25 | > 25 | > 25 | > 25 | > 25 |  | 
3 | O=C1OCC2OC(=O)c3cc(O)c(O)c(O)c3-c3c(O)c(O)c(O)c4c3C(=O)OC(C2OC(=O)c2cc(O)c(O)c(O)c2-c2c1cc(O)c(O)c2O)C1OC(=O)c2c-4c(O)c(O)c(O)c2[C@@H]1C(O)C(O)C(O)C(O)CO (some centres undefined) | 41 | 26.7 | 23.7 | 80.6 | 39.7 | 30.7 | 49.8 |  |  | 
4 | CN1c2ccccc2C(=O)NC12CCN(CCCC(=O)c1ccc(F)cc1)CC2 | > 100 | > 100 | > 100 | > 100 | > 100 | > 100 | 71.2 | > 100 |  | 
5 | CSc1nc2c(c(=O)[nH]1)N=C(c1ccc([N+](=O)[O-])cc1)CC(c1ccccc1)N2 (centres undefined) | > 100 | > 100 | > 100 | > 100 | > 100 | > 100 | > 100 | 74.7 |  | 
6 | Cn1c(=O)c2c(nc3n2CC(=O)N3CCCCl)n(C)c1=O | > 100 | > 100 | > 100 | > 100 |  | > 100 | > 100 | > 100 |  | 
7 | CS(=O)(=O)OCC1CN(S(C)(=O)=O)c2cc(O)ccc21 (centres undefined) | 7.65 | 14.2 | 5.76 | 8.27 | 2.94 | 15.1 | 6.93 | 7.43 |  | 
8 | C/C(=N\Nc1ccc([N+](=O)[O-])cc1[N+](=O)[O-])c1sc(-n2nc(-c3ccccc3)cc2-c2ccccc2)nc1C | > 100 | > 100 | 50.9 | > 100 | > 100 | > 100 | 46.8 | > 100 |  | 
9 | O=C(O)C12C3CCC(CC3)C1(C(=O)O)C1CCC2C1 (centres undefined) |  | > 100 | > 100 | > 100 | > 100 | > 100 | > 100 | > 100 |  | 
10 | C=CC[C@@H](N)C(=O)N(C)[C@@H](C)[C@@H](O)c1ccccc1 | > 100 | > 100 | > 100 | > 100 | 44.2 | > 100 | > 100 | > 100 |  | 
11 | O=C(NC1CCCCC1NC(c1ccccc1)(c1ccccc1)c1ccccc1)C(=O)NC1CCCCC1NC(c1ccccc1)(c1ccccc1)c1ccccc1 (centres undefined) | 76.3 | > 100 | > 100 | > 100 | > 100 | > 100 | > 100 | 8.65 |  | 
12 | CC(C)(C)OC(=O)NC(Cc1ccccc1)OCc1ccccc1 (centres undefined) |  | 37.8 |  | 49.3 | 26.9 | 35 | 77.6 | 25.4 |  | 
13 | O=c1[nH]cc(-c2c[nH]c3ccccc23)nc1-c1c[nH]c2ccccc12 | 43.3 | 24.6 |  | 23.3 | 20.3 | 25 |  | 23.7 |  | 
14 | COC(=O)[C@@H]1CC(C(C[N+](=O)[O-])c2ccc(O[Si](C)(C)C(C)(C)C)cc2)C(=O)N1C(=O)OC(C)(C)C (some centres undefined) | > 100 | > 100 | > 100 | > 100 | > 100 | > 100 | > 100 | > 100 | 28.1 µM and > 100 µM | 14.4 µM and 31.4 µM
15 | C=CCN1C(=O)/C(=C/c2cccs2)N=C1SC/C=C/C | > 100 | > 100 | > 100 | > 100 | 97.5 | > 100 | 44.6 | > 100 |  | 
16 | O=C(CCCN1CCC2(CC1)CC(c1ccccc1)OC2=O)c1ccc(F)cc1 (centres undefined) | > 100 | 82.3 | > 100 | > 100 | > 100 | > 100 | 62.1 | 54.2 |  | 
17 | Cc1ccc(NC(Nc2ccc(C)cc2C)=C(/C=C(\Cl)[N+](=O)[O-])[N+](=O)[O-])c(C)c1 | 12.9 | 4.23 | 1.72 | 8.7 | 4.52 | 8.26 | 4.82 | 16.4 |  | 
18 | COC(=O)[C@H](CCSC)NC(=O)N[C@H](C)c1ccccc1 | > 100 | > 100 | > 100 | > 100 | 47.5 | > 100 | > 100 | > 100 |  | 
19 | NC(N)=NCCCC(NC(=O)c1cccc2c(=O)c3ccccc3[nH]c12)C(=O)O (centres undefined) | > 100 |  | > 100 | > 100 | > 100 | > 100 | > 100 | > 100 |  | 
20 | CC1=NC(=Cc2cccc(Cl)c2)C(=O)N1n1c(-c2ccccc2)nc2ccccc2c1=O |  | 87.6 | > 100 |  | 67.7 | 52.7 | 98.3 | > 100 |  | 
21 | CC1CC(C)C(C#N)N(C)c2ccccc21 (centres undefined) | > 100 | > 100 | > 100 | > 100 |  | > 100 | > 100 | > 100 |  | 
22 | COc1c(Br)cc2c(c1OC)C(Br)CCC(Br)(Br)C2=O (centres undefined) | 6.87 | 8.3 |  | 2.91 | 2 | 5.21 | 5.73 | 22.2 |  | 
23 | Cc1cc(C)c(-n2[nH]c(=O)n(C)c2=O)c(C)c1 | > 100 | > 100 | > 100 | > 100 | > 100 |  | > 100 | > 100 |  | 
24 | COc1c(F)c(F)c(/C(O)=C\c2nc3ccccc3[nH]c2=O)c(F)c1F | 4.94 | > 10 | > 10 |  |  |  | > 10 | 6.01 |  | 
25 | Cc1n[nH]c(=O)n1N1C(=O)CCCC1=O |  | > 100 | > 100 | > 100 | > 100 |  | 62.8 | > 100 |  | 

— PubChem BioAssay (NCI)
